≈ marks a conversion by molar mass, not a printed value. Where “and” joins values, the source holds several entries; their conditions need not be identical. Identical values can stand only once.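 These data come from cells grown in 96-well plates and exposed to compound for 48 hours at five concentrations. GI50 marks 50% less growth. The concentration for full growth arrest is given as TGI.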 Calls of active or inactive are those of the source. Rule as the data show it: active = GI50 below about 0.43 µM; inactive = the rest.
Columns and labels:
Test in all cases: growth of human tumour cells (NCI), 48 h
LXFL 529 NSCLC = test system: LXFL 529 NSCLC
DMS 114 small cell lung = test system: DMS 114 small cell lung
KM20L2 colon = test system: KM20L2 colon
SNB-78 CNS = test system: SNB-78 CNS
DMS 273 small cell lung = test system: DMS 273 small cell lung
DLD-1 colon = test system: DLD-1 colon
MDA-MB-435 = test system: MDA-MB-435
XF 498 CNS = test system: XF 498 CNS

Row | SMILES | TGI (DMS 114 small cell lung) | TGI (KM20L2 colon) [µM] | GI50 (MDA-MB-435) [µM] | TGI (MDA-MB-435) [µM] | further results
1 | CCCCCCCCCCC/C(=N/O)c1ccc(O)c2ncccc12 | 6.79 µM | 17.6 | – | – | TGI (LXFL 529 NSCLC): 7.57 µM; TGI (SNB-78 CNS): > 100 µM; TGI (DMS 273 small cell lung): 4.79 µM; TGI (DLD-1 colon): 8.91 µM
2 | O=Cc1c(-c2cc(O)ccc2O)nc2sccn12 | – | – | 15.6 | 34.2 | –
3 | C[C@]12CCC3[C@@H](C[C@@H]4SC(Nc5ccccc5)=N[C@@]45CC(=O)CC[C@]35C)[C@@H]1CCC2=O (stereo partly specified) | – | – | 3.48 | > 100 | –
4 | Cc1c(N=Nc2ccc([N+](=O)[O-])cc2)nc2scc(-c3ccccc3)n12 | – | – | – | > 100 | –
5 | OCc1cn(Cc2cccc(Cl)c2)c2ccccc12 | – | – | 14.8 | 35.5 | –
6 | OCCCCC#Cc1ccccc1C#Cc1ccccc1 | – | – | 13.7 | 27.2 | –
7 | N[C@@H](Cc1c[nH]c2ccccc12)C(=O)NC1CCN(C(=O)c2c[nH]c3ccccc23)CC1 | – | – | > 100 | > 100 | –
8 | COc1c(O)c2c(c3cc(C(=O)N4CCc5c4c(O)c(OC)c4[nH]c(C(=O)N6CC7CC78C6=CC(=O)c6[nH]cc(C)c68)cc54)[nH]c13)CCN2C(N)=O (stereo unspecified) | 15.1 nM and 0.0121 µg/mL | 0.0181 | – | 0.783 | TGI (LXFL 529 NSCLC): 0.0329 µM; outcome (LXFL 529 NSCLC): inactive; GI50 (DMS 114 small cell lung): 2.76 ng/mL (≈ 3.92 nM); outcome (KM20L2 colon): inactive; GI50 (SNB-78 CNS): 11.7 ng/mL (≈ 16.6 nM); TGI (SNB-78 CNS): 53.4 ng/mL; GI50 (DMS 273 small cell lung): 1.98 ng/mL (≈ 2.82 nM); TGI (DMS 273 small cell lung): 7.18 nM and 0.0106 µg/mL; GI50 (DLD-1 colon): 3.41 ng/mL (≈ 4.85 nM)
9 | COP(=O)(OC)C(NC(c1ccccc1)c1ccccc1)c1ccc2c(c1)OCO2 (stereo unspecified) | – | – | 33.3 | 94.8 | –
10 | C1CC[N-]CC1.C1CC[N-]CC1.C1CC[N-]CC1.C1CC[N-]CC1.[Cl][Rh][Cl] | – | – | 4.09 | 32.4 | –
11 | COc1ccc(C=C2C(=O)OC(C)(C)OC2=O)cc1OC | > 100 µM | > 100 | – | – | TGI (LXFL 529 NSCLC): > 100 µM; TGI (XF 498 CNS): > 100 µM; TGI (SNB-78 CNS): > 100 µM; TGI (DLD-1 colon): > 100 µM
12 | CC12CCC3C(CC=C4CC(O)CCC43C)C1C/C(=C\N1CCCC1)C2=O (stereo unspecified) | – | – | > 100 | > 100 | –
13 | CC(=O)O[C@H]1C(=O)[C@@]2(C)C(C(OC(=O)c3ccccc3)[C@]3(O)CC(OC(=O)[C@H](OC(=O)CCC(=O)O)C(NC(=O)c4ccccc4)c4ccccc4)C(C)=C1C3(C)C)C1(OC(C)=O)COC1C[C@@H]2OC(=O)CCC(=O)O (stereo partly specified) | – | – | 0.189 | 0.495 | –
14 | N#Cc1c(C(=O)c2ccccc2)cnn1-c1ccccc1 | – | – | > 25 | > 25 | –
15 | CCOC(=O)CC(=O)Sc1ccccc1 | 32 µM | 47.5 | – | – | TGI (XF 498 CNS): 93.4 µM; TGI (DMS 273 small cell lung): 46 µM; TGI (DLD-1 colon): 53.6 µM
16 | O=c1c2ccccc2c2ccccc2c(=O)n1-c1cc2c3ccccc3ccc2c2ccccc12 | – | – | – | > 100 | –
17 | Cc1c(/C=N/NS(=O)(=O)c2ccccc2)no[n+]1[O-] | > 100 µM | > 100 | – | – | TGI (LXFL 529 NSCLC): > 100 µM
18 | CCOP(=O)(OCC)C(NC(c1ccccc1)c1ccccc1)c1ccccc1 (stereo unspecified) | – | – | 1.36 | 8.89 | –
19 | CSc1nc2c(c(=O)[nH]1)N=C1c3ccccc3C(=O)C1C(c1ccc(F)cc1)N2 (stereo unspecified) | – | – | 1.65 | 8.76 | –
20 | Clc1ccc(-n2nnc(C3=NCCN3)c2-c2ccccc2)cc1 | > 100 µM | > 100 | – | – | TGI (LXFL 529 NSCLC): > 100 µM; TGI (XF 498 CNS): > 100 µM; TGI (SNB-78 CNS): > 100 µM; TGI (DMS 273 small cell lung): > 100 µM; TGI (DLD-1 colon): > 100 µM
21 | [N-]=[N+]=NC(c1cn(C2CC(O)C(CO)O2)c(=O)[nH]c1=O)C(Br)I (stereo unspecified) | > 100 µM | > 100 | – | – | TGI (LXFL 529 NSCLC): > 100 µM; TGI (SNB-78 CNS): > 100 µM; TGI (DMS 273 small cell lung): > 100 µM; TGI (DLD-1 colon): > 100 µM
22 | O=C1C(Cl)C(c2cccc(O)c2)N1n1cnc2ccccc2c1=O (stereo unspecified) | > 100 µM | > 100 | – | – | TGI (LXFL 529 NSCLC): > 100 µM; TGI (XF 498 CNS): > 100 µM; TGI (SNB-78 CNS): > 100 µM; TGI (DMS 273 small cell lung): > 100 µM; TGI (DLD-1 colon): > 100 µM
23 | CCCC[C@H]1C(=O)O[C@H](C)[C@H](NC(=O)c2cccc(NC=O)c2O)C(=O)O[C@@H](C)[C@@H]1OC(=O)CC(C)C | – | – | – | 44.6 | –
24 | C=C1C(=O)O[C@H]2[C@H]1CC/C(COC(=O)NCc1cc3ccccc3[nH]1)=C\CC[C@@]1(C)O[C@@H]21 | – | – | 1.75 | 3.48 | –
25 | Cc1cn(C2CC(F)C(CO)O2)c(=O)[nH]c1=O (stereo unspecified) | – | – | > 100 | > 100 | –
26 | CC(C)(C)N1CCC1C(N)=O (stereo unspecified) | – | – | > 100 | > 100 | –
27 | C=C1[C@@H](C)[C@H]2[C@H](Cc3ccccc3)NC(=O)[C@]23OC(=O)/C=C/[C@H](O)CCC[C@@H](C)C/C=C/[C@H]3[C@@H]1O | > 100 µM | > 100 | – | – | TGI (XF 498 CNS): 8.97 µM; TGI (SNB-78 CNS): 15.2 µM; TGI (DMS 273 small cell lung): > 97 µM; TGI (DLD-1 colon): > 100 µM

Source: PubChem BioAssay (NCI)
